# From patent US3931199A, “Benzopyrano and benzothiopyrano [2,3-6] pyridines” (Yoshitomi Pharmaceutical Industries, Ltd., priority 1973, dated 1976)
# Read-outs that look alike come from different tables or passages of the source.
# Test system: Passive Cutaneous Anaphylaxis
# Assay: Passive Cutaneous Anaphylaxis Test
# Assay type: in vivo, Donryu-strain male rats
# Settings: Rattus norvegicus, dose required for 50% inhibition, rats sensitized with reagin serum, egg albumin challenge after 48 hours
# Experimental: A test solution containing a test compound was administered orally 1 hour before, or intraperitoneally 30 minutes before challenge. The animals were killed 30 minutes after challenge, the skin reflected, and the responses measured and scored 0 for diameter of wheal less than 5 mm, 1 for 5-10 mm,[…] 3 for 15-20 mm and 4 for more than 20 mm. The percentage inhibition was calculated using the formula: [formula]
# [1] = ip, 0.5 h, i.p., 30 minutes before challenge, read-out: ED50 i.p.
# [2] = po, 1 hour before challenge, read-out: ED50 p.o.
smiles,measurement,setting,value
"O=C(O)c1ccc2oc3ncccc3c(=O)c2c1 [C, 5-oxo-5H-[1]benzopyrano[2,3-b]pyridine-7-carboxylic acid]",ED50,[1],2 mg/kg
same,ED50,[2],25 mg/kg
"O=C([O-])c1ccc2oc3nc(-c4ccccc4)ccc3c(=O)c2c1.[Na+] [D, sodium 2-phenyl-5-oxo-5H-[1]benzopyrano[2,3-b]pyridine-7-carboxylate]",ED50,[1],1 mg/kg
same,ED50,[2],40 mg/kg
"CC(C)C(=O)c1ccc2oc3ncccc3c(=O)c2c1 [B, 7isobutyryl-5-oxo-5H-[1]benzopyrano[2,3-b]pyridine]",ED50,[1],1 mg/kg
same,ED50,[2],25 to 50 mg/kg
"CC(=O)c1ccc2oc3ncccc3c(=O)c2c1 [A, 7-acetyl-5-oxo-5H-[1]benzopyrano[2,3-b]pyridine]",ED50,[1],1 mg/kg
same,ED50,[2],10 mg/kg
